These are literature values, as cited in patent publication US20170261495A1, “MODEL SYSTEMS FOR SCREENING MODULATORS OF mTOR SIGNALING” (SHRINERS HOSPITALS FOR CHILDREN, priority 2015, published 2017).

For the series the following is noted: clinical trials.

As for `CO[C@H]1C[C@@H]2CC[C@@H](C)[C@@](O)(O2)C(=O)C(=O)N2CCCC[C@H]2C(=O)O[C@H]([C@H](C)C[C@@H]2CC[C@@H](OCCO)[C@H](OC)C2)CC(=O)[C@H](C)/C=C(\C)[C@@H](O)[C@@H](OC)C(=O)[C@H](C)C[C@H](C)/C=C/C=C/C=C/1C` [everolimus], the effects on epilepsy entry (TSC) was “minimal”. Further, the “size of renal and brain tumors” value (TSC (Krueger et al., 2010)) is on record as “clear reduction”.
